Here are results for 18 compounds from patent publication US8404844B2, “Perylene semiconductors and methods of preparation and use thereof” (BASF SE, priority 2008, dated 2013).

A short description of data set [1]: Cyclic voltammetry (reduction potential). The format is physicochemical. The following applies: 0.1 M THF/TBAPF6, under N2, bare Ag reference electrode, scan 60-150 mV/s. As for the experimental part: Cyclic voltammetry experiments were conducted using an Epsilon single-channel […] and a BAS C3 cell stand (a one-compartment cell with a C disk working electrode, a bare Ag reference electrode, and a Pt wire counter electrode). Appropriate precautions were taken to eliminate water and oxygen during measurement. All measurements were performed under N2 by dissolving the compound (1-3 mg) in a 0.1 M THF/TBAPF6 solutions with scanning rates between 60-150 mV/s. When the voltammograms are (quasi)reversible, it is possible to extract formal potentials (E^1/2) as the midpoints between peak potentials for the forward and reverse scans.
Table 1 summarizes certain physical and electrical properties of some compounds of the present teachings, including Ered values obtained from the cyclic voltammetry experiments. N,N′-Bis(4-n-octyl)-1,7-dicyanoperylene-3,4:9,10-bis(dicarboximide) (PDI8-CN2), N,N′-bis[(3S)-3,7-dimethyl-6-octenyl]-1,7-dicyanoperylene-3,4:9,10-bis(dicarboximide) (PDICitr-CN2), N,N′-bis(2-ethylhexyl)-1,7-dicyanoperylene-3,4:9,10-bis(dicarboximide) (PDI2EH-CN2), and N,N′-bis(2-methylhexyl)-1,7-dicyanoperylene-3,4:9,10-bis(dicarboximide) (PDI2MH-CN2) were included as comparative representative compounds.

A short description of data set [2]: Solubility in organic solvents. The class given is physicochemical. The following applies: for Solubility CHCl3: chloroform; for Solubility DCB: dichlorobenzene (DCB); for Solubility compared to similar compounds: compared to PDI8-CN2, PDI2EH-CN2, PDICitr-CN2 and PDI2MH-CN2. As to the method: As certain embodiments of the compounds disclosed herein can be soluble in common solvents, the present teachings can offer processing advantages in fabricating electrical devices such as thin film semiconductors, field-effect devices, organic light emitting diodes (OLEDs), organic photovoltaics, photodetectors, capacitors, and sensors. As used herein, a compound can be considered soluble in a solvent when at least 1 mg of the compound can be dissolved in 1 mL of the solvent. Examples of common organic solvents include petroleum ethers; acetonitrile; aromatic hydrocarbons such as benzene, toluene, xylene, and mesitylene; ketones such as acetone and methyl ethyl ketone; ethers such as tetrahydrofuran, dioxane, bis(2-methoxyethyl)ether, diethyl ether, di-isopropyl ether, and t-butyl methyl ether; alcohols such as methanol, ethanol, butanol, and isopropyl alcohol; aliphatic hydrocarbons such as hexanes; acetates such as methyl acetate, ethyl acetate, methyl formate, ethyl formate, isopropyl acetate, and butyl acetate; amides such as dimethylformamide and dimethylacetamide; sulfoxides such as dimethylsulfoxide; halogenated aliphatic and aromatic hydrocarbons such as dichloromethane, chloroform, ethylene chloride, chlorobenzene, dichlorobenzene, and trichlorobenzene; and cyclic solvents such as cyclopentanone, cyclohexanone, and 2-methypyrrolidone. Examples of common inorganic solvents include water and ionic liquids.
Greater solubilities (2-10 times) can be achieved using warm solvents.

Molecules are shown by their SMILES. Values after ≈ are worked out from the molar mass of the structure shown.

The compound `CCCC(CC)N1C(=O)c2ccc3c4c(Br)cc5c6c(ccc(c7c(Br)cc(c2c37)C1=O)c64)C(=O)N(C(CC)CCC)C5=O` (stereo not shown) [PDI1EB-Br2, N,N′-bis(1-ethylbutyl)-1,7-dibromoperylene-3,4:9,10-bis(dicarboximide)] had an Ered in data set [1] of −0.34 V.

Take `CCCC(CC)N1C(=O)c2ccc3c4c(C#N)cc5c6c(ccc(c7c(C#N)cc(c2c37)C1=O)c64)C(=O)N(C(CC)CCC)C5=O` (stereo not shown) [PDI1EB-CN2, N,N′-bis(1-ethylbutyl)-1,7-dicyanoperylene-3,4:9,10-bis(dicarboximide)]: the Ered in data set [1] is recorded as −0.106 V. Also, in data set [2], the “Solubility CHCl3” value turned out to be 8000 µg/mL (≈ 13.1 mM) and the “Solubility DCB” value is 10000 µg/mL (≈ 16.4 mM).

In data set [1], `CCC(CC)N1C(=O)c2ccc3c4c(Br)cc5c6c(ccc(c7c(Br)cc(c2c37)C1=O)c64)C(=O)N(C(CC)CC)C5=O` [PDI1EPr-Br2, N,N′-bis(1-ethylpropyl)-1,7-dibromoperylene-3,4:9,10-bis(dicarboximide)] yielded an Ered of −0.38 V.

`CCC(CC)N1C(=O)c2ccc3c4c(C#N)cc5c6c(ccc(c7c(C#N)cc(c2c37)C1=O)c64)C(=O)N(C(CC)CC)C5=O` [PDI1EPr-CN2, N,N′-bis(1-ethylpropyl)-1,7-dicyanoperylene-3,4:9,10-bis(dicarboximide)] gave an Ered in data set [1] of −0.101 V. Besides, the “Solubility DCB” value in data set [2] came to 10000 µg/mL (≈ 17.2 mM).

For the compound `CC(C)CC(C)N1C(=O)c2ccc3c4c(Br)cc5c6c(ccc(c7c(Br)cc(c2c37)C1=O)c64)C(=O)N(C(C)CC(C)C)C5=O` (stereo not shown) [PDI1M3MB-Br2, N,N′-bis(1,3-dimethylbutyl)-1,7-dibromoperylene-3,4:9,10-bis(dicarboximide)], in data set [1], the Ered is listed as −0.39 V.

`CC(C)CC(C)N1C(=O)c2ccc3c4c(C#N)cc5c6c(ccc(c7c(C#N)cc(c2c37)C1=O)c64)C(=O)N(C(C)CC(C)C)C5=O` (stereo not shown) [PDI1M3MB-CN2, N,N′-bis(1,3-dimethylbutyl)-1,7-dicyanoperylene-3,4:9,10-bis(dicarboximide)]: the Ered in data set [1] is listed as −0.088 V. In data set [2], the “Solubility (DCB, 70° C.)” value came out at 37100 µg/mL (≈ 60.9 mM); the “Solubility CHCl3” value was found to be 30000 µg/mL (≈ 49.3 mM); the “Solubility compared to similar compounds” value is on record as “unexpected increase in solubility”; the “Solubility DCB” value worked out at 37000 µg/mL (≈ 60.8 mM).

As for `CCCC(C)N1C(=O)c2ccc3c4c(Br)cc5c6c(ccc(c7c(Br)cc(c2c37)C1=O)c64)C(=O)N(C(C)CCC)C5=O` (stereo not shown) [PDI1MB-Br2, N,N′-bis(1-methylbutyl)-1,7-dibromoperylene-3,4:9,10-bis(dicarboximide)], in data set [1], the Ered is on record as −0.39 V.

In the case of `CCCC(C)N1C(=O)c2ccc3c4c(C#N)cc5c6c(ccc(c7c(C#N)cc(c2c37)C1=O)c64)C(=O)N(C(C)CCC)C5=O` (stereo not shown) [PDI1MB-CN2, N,N′-bis(1-methylbutyl)-1,7-dicyanoperylene-3,4:9,10-bis(dicarboximide)], the Ered in data set [1] is given as −0.083 V. The “Solubility DCB” value in data set [2] was determined as 5000 µg/mL (≈ 8.61 mM).

In the case of `CCCCCC(C)N1C(=O)c2ccc3c4c(Br)cc5c6c(ccc(c7c(Br)cc(c2c37)C1=O)c64)C(=O)N(C(C)CCCCC)C5=O` (stereo not shown) [PDI1MH-Br2, N,N′-bis(1-methylhexyl)-1,7-dibromoperylene-3,4:9,10-bis(dicarboximide)], in data set [1], the Ered is −0.38 V.

For `CCCCCC(C)N1C(=O)c2ccc3c4c(C#N)cc5c6c(ccc(c7c(C#N)cc(c2c37)C1=O)c64)C(=O)N(C(C)CCCCC)C5=O` (stereo not shown) [PDI1MH-CN2, N,N′-bis(1-methylhexyl)-1,7-dicyanoperylene-3,4:9,10-bis(dicarboximide)], in data set [1], the Ered is reported as −0.094 V. Moreover, in data set [2], the “Solubility CHCl3” value amounted to 54000 µg/mL (≈ 84.8 mM), the “Solubility compared to similar compounds” value is “unexpected increase in solubility” and the “Solubility DCB” value stood at 52000 µg/mL (≈ 81.7 mM).

Compound `CCCCC(C)N1C(=O)c2ccc3c4c(Br)cc5c6c(ccc(c7c(Br)cc(c2c37)C1=O)c64)C(=O)N(C(C)CCCC)C5=O` (stereo not shown) [PDI1MP-Br2, N,N′-bis(1-methylpentyl)-1,7-dibromoperylene-3,4:9,10-bis(dicarboximide)] displayed an Ered in data set [1] of −0.41 V.

As to `CCCCC(C)N1C(=O)c2ccc3c4c(C#N)cc5c6c(ccc(c7c(C#N)cc(c2c37)C1=O)c64)C(=O)N(C(C)CCCC)C5=O` (stereo not shown) [PDI1MP-CN2, N,N′-bis(1-methylpentyl)-1,7-dicyanoperylene-3,4:9,10-bis(dicarboximide)], in data set [1], the Ered was −0.071 V. Further, in data set [2], the “Solubility (DCB, 70° C.)” value was found to be 41800 µg/mL (≈ 68.7 mM); the “Solubility CHCl3” value is 43000 µg/mL (≈ 70.6 mM); the “Solubility compared to similar compounds” value was “unexpected increase in solubility”; the “Solubility DCB” value turned out to be 40000 µg/mL (≈ 65.7 mM).

Compound `CCC(C)N1C(=O)c2ccc3c4c(Br)cc5c6c(ccc(c7c(Br)cc(c2c37)C1=O)c64)C(=O)N(C(C)CC)C5=O` (stereo not shown) [PDI1MPr-Br2, N,N′-bis(1-methylpropyl)-1,7-dibromoperylene-3,4:9,10-bis(dicarboximide)] returned an Ered in data set [1] of −0.40 V.

For the compound `CCC(C)N1C(=O)c2ccc3c4c(C#N)cc5c6c(ccc(c7c(C#N)cc(c2c37)C1=O)c64)C(=O)N(C(C)CC)C5=O` (stereo not shown) [PDI1MPr-CN2, N,N′-bis(1-methylpropyl)-1,7-dicyanoperylene-3,4:9,10-bis(dicarboximide)], the Ered in data set [1] was −0.091 V. The “Solubility DCB” value in data set [2] is 8000 µg/mL (≈ 14.5 mM).

On to `CCCCC(CC)CN1C(=O)c2ccc3c4c(C#N)cc5c6c(ccc(c7c(C#N)cc(c2c37)C1=O)c64)C(=O)N(CC(CC)CCCC)C5=O` (stereo not shown) [PDI2EH-CN2, N,N′-bis(2-ethylhexyl)-1,7-dicyanoperylene-3,4:9,10-bis(dicarboximide), reference compound], for which the Ered in data set [1] was −0.130 V. Besides, in data set [2], the “Solubility CHCl3” value was 5000 µg/mL (≈ 7.52 mM) and the “Solubility DCB” value is 5000 µg/mL (≈ 7.52 mM).

As for `CCCCC(C)CN1C(=O)c2ccc3c4c(C#N)cc5c6c(ccc(c7c(C#N)cc(c2c37)C1=O)c64)C(=O)N(CC(C)CCCC)C5=O` (stereo not shown) [PDI2MH-CN2, N,N′-bis(2-methylhexyl)-1,7-dicyanoperylene-3,4:9,10-bis(dicarboximide), reference compound], the Ered in data set [1] is −0.120 V. Further, in data set [2], the “Solubility DCB” value was 5000 µg/mL (≈ 7.85 mM).

With `CCCCCCCCN1C(=O)c2ccc3c4c(C#N)cc5c6c(ccc(c7c(C#N)cc(c2c37)C1=O)c64)C(=O)N(CCCCCCCC)C5=O` [PDI8-CN2, N,N′-Bis(4-n-octyl)-1,7-dicyanoperylene-3,4:9,10-bis(dicarboximide), reference compound], the Ered in data set [1] is listed as −0.150 V. In data set [2], the “Solubility CHCl3” value was determined as 4000 µg/mL (≈ 6.02 mM) and the “Solubility DCB” value was 4000 µg/mL (≈ 6.02 mM).

Turning to `CC(C)=CCC[C@H](C)CCN1C(=O)c2ccc3c4c(C#N)cc5c6c(ccc(c7c(C#N)cc(c2c37)C1=O)c64)C(=O)N(CC[C@@H](C)CCC=C(C)C)C5=O` [PDICitr-CN2, N,N′-bis[(3S)-3,7-dimethyl-6-octenyl]-1,7-dicyanoperylene-3,4:9,10-bis(dicarboximide), reference compound], in data set [1], the Ered is on record as −0.142 V. Besides, in data set [2], the “Solubility DCB” value amounted to 8000 µg/mL (≈ 11.2 mM).
